Reference: ChEMBL document CHEMBL1201862, “PubChem BioAssay data set” (2004)
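Results reflect a 48-hour exposure of cells in 96-well plates to compound at five concentrations. The concentration for 50% growth inhibition is given as GI50.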 Active and inactive are the calls of the source. Rule as the data show it: active = GI50 up to about 1.1 µM and inactive = higher.

What was measured:
Assay in all cases: NCI anticancer screen, dose series, 48 h
[1] = tested on: PC-3
[2] = tested on: SNB-19
[3] = tested on: NCI/ADR-RES
[4] = tested on: LOX IMVI
[5] = tested on: RPMI-8226
[6] = tested on: HOP-92
[7] = tested on: MCF7
[8] = tested on: SK-MEL-2
[9] = tested on: NCI-H460
[10] = tested on: HCT-116
[11] = tested on: M14
[12] = tested on: Malme-3M
[13] = tested on: NCI-H23
[14] = tested on: K562
[15] = tested on: UACC-257
[16] = tested on: 786-0
[17] = tested on: NCI-H522
[18] = tested on: SNB-75
[19] = tested on: A498
[20] = tested on: MDA-MB-435

Measured: GI50

O=C(O)CCC(=O)Nc1ccc2ccccc2c1
inactive: [1] > 100 µM | [2] > 100 µM | [3] > 100 µM | [4] > 100 µM | [5] > 100 µM | [6] > 100 µM | [7] > 100 µM | [8] > 100 µM | [9] > 100 µM | [10] > 100 µM | [11] > 100 µM | [12] > 100 µM | [13] > 100 µM | [14] > 100 µM | [15] > 100 µM | [16] > 100 µM | [17] > 100 µM | [18] > 100 µM | [19] > 100 µM | [20] > 100 µM

COc1cc(OC)c(/C=C/c2cnc3ccccc3n2)c(OC)c1
inactive: [1] > 10 µM | [2] > 10 µM | [3] > 10 µM | [4] > 10 µM | [5] > 10 µM | [6] > 10 µM | [7] > 10 µM | [8] > 10 µM | [9] > 10 µM | [10] > 10 µM | [11] > 10 µM | [12] > 10 µM | [13] > 10 µM | [14] > 10 µM | [15] > 10 µM | [16] > 10 µM | [17] > 10 µM | [18] > 10 µM | [19] > 10 µM | [20] > 10 µM

Brc1ccc2[nH]cc(-c3nc(-c4c[nH]c5ccccc45)cs3)c2c1
inactive: [1] 3.11 µM | [2] 3.51 µM | [3] 2.79 µM | [4] 1.93 µM | [5] 3.18 µM | [6] 2.54 µM | [7] 2.8 µM | [8] 2.82 µM | [9] 2.06 µM | [10] 2.53 µM | [11] 1.74 µM | [12] 3.17 µM | [13] 2.47 µM | [14] 2.95 µM | [15] 3.97 µM | [16] 2.86 µM | [17] 1.91 µM | [18] 10.4 µM | [19] 2.88 µM | [20] 3.88 µM

CCOP(=O)(OCC)C(c1ccc(F)cc1)N(C(=O)NC(F)(F)F)c1cccc(C(F)(F)F)c1 (stereo not given)
inactive: [1] > 100 µM | [2] 77.3 µM | [3] 82.8 µM | [4] > 100 µM | [5] 63 µM | [6] 33.2 µM | [7] > 100 µM | [8] > 100 µM | [9] 91.4 µM | [10] 84.3 µM | [11] > 100 µM | [12] > 100 µM | [13] > 100 µM | [14] 50.2 µM | [15] > 100 µM | [16] > 10 µM | [17] 67.8 µM | [18] 46.9 µM | [19] > 100 µM | [20] > 100 µM

CC(CSC(=N)N)C(N)=O (stereo not given)
inactive: [1] > 100 µM | [2] > 100 µM | [3] > 100 µM | [4] > 100 µM | [5] > 100 µM | [6] > 100 µM | [7] > 100 µM | [8] > 100 µM | [9] > 100 µM | [10] > 100 µM | [11] > 100 µM | [12] > 100 µM | [13] > 100 µM | [14] > 100 µM | [15] > 100 µM | [16] > 100 µM | [17] > 100 µM | [18] > 100 µM | [19] > 100 µM | [20] > 100 µM

N#Cc1c(N)nc2c(/N=N\c3ccccc3)c(N)nn2c1Nc1ccccc1
inactive: [1] 5.69 µM | [2] 18.5 µM | [3] 20.4 µM | [4] 3.4 µM | [5] 3.56 µM | [6] 14.6 µM | [7] 1.51 µM | [8] 7.91 µM | [9] 10.1 µM | [10] 9.38 µM | [11] 12.1 µM | [12] 21.6 µM | [13] 4.55 µM | [14] 3.4 µM | [15] 18.7 µM | [16] 18.6 µM | [17] 17.8 µM | [18] 34.3 µM | [19] 21.7 µM | [20] 16.4 µM

COc1cc(C2C3=C(COC3=O)Oc3cc4c(cc32)OCO4)ccc1OC(C)=O (stereo not given)
active: [1] 0.186 µM | [2] 0.35 µM | [3] 0.279 µM | [4] 0.708 µM | [5] 0.34 µM | [7] 0.29 µM | [8] 0.684 µM | [9] 0.45 µM | [10] 0.398 µM | [11] 0.498 µM | [12] 0.0893 µM | [13] 0.67 µM | [14] 0.13 µM | [16] 0.521 µM | [17] 0.0948 µM | [18] 0.168 µM | [20] 0.0263 µM
inactive: [6] 6 µM | [15] > 100 µM | [19] 1.53 µM

C=C1C(=O)O[C@H]2[C@H](OC(C)=O)[C@@H](C)CCC/C(C)=C/CC[C@@]3(C)O[C@@H]3C[C@@H]12
inactive: [1] 5.25 µM | [2] 13.6 µM | [3] 1.59 µM | [4] 1.86 µM | [5] 1.4 µM | [6] 1.92 µM | [7] 2.31 µM | [8] 6.01 µM | [9] 5.26 µM | [10] 2.23 µM | [11] 4.23 µM | [12] 16 µM | [13] 4.04 µM | [14] 3.03 µM | [15] 5.06 µM | [16] 1.6 µM | [17] 1.78 µM | [18] 6.21 µM | [19] 3.56 µM | [20] 3.24 µM

COc1ccc(/C=C2\CC3C4CC=C5C[C@@H](N6CCCC6)CC[C@]5(C)C4CC[C@]3(C)[C@H]2O)cc1OC (stereo not given in full)
inactive: [1] 6.3 µM | [2] 10.4 µM | [3] 9.02 µM | [4] 8.97 µM | [5] 7.52 µM | [6] 10.7 µM | [7] 7.55 µM | [8] 7.43 µM | [9] 9.16 µM | [10] 8.24 µM | [11] 9.44 µM | [12] 9.2 µM | [13] 9.04 µM | [14] 8.09 µM | [15] 8.13 µM | [16] 3.77 µM | [17] 8.22 µM | [18] 12.2 µM | [19] 8.2 µM | [20] 6.7 µM

O=c1c2sc(=S)n(-c3ccc(F)cc3)c2ncn1/N=C/c1ccc(F)cc1F
inactive: [1] 31.6 µM | [2] 26.6 µM | [3] 33 µM | [4] 43.6 µM | [5] 52.2 µM | [6] 11 µM | [7] 41.5 µM | [8] 25.4 µM | [9] 39.2 µM | [10] 31 µM | [11] 23.2 µM | [12] 18.7 µM | [13] 33.4 µM | [14] > 100 µM | [15] 34.9 µM | [16] 17.2 µM | [17] 44.5 µM | [18] 16 µM | [19] 19.3 µM | [20] 83.9 µM

[N-]=[N+]=CC(=O)OC1Cc2ccccc2C1
inactive: [1] > 95.7 µM | [2] > 100 µM | [3] > 100 µM | [4] > 100 µM | [5] > 100 µM | [6] 69.7 µM | [7] > 100 µM | [8] > 100 µM | [9] > 100 µM | [10] > 100 µM | [11] > 100 µM | [12] > 100 µM | [13] > 100 µM | [14] > 100 µM | [15] > 100 µM | [16] > 81.7 µM | [17] > 71 µM | [18] 50.4 µM | [19] > 100 µM | [20] > 100 µM

COc1ccc(/N=N/C(=O)NC(CC(C)C)C(=O)NCC(=O)O)cc1 (stereo not given)
inactive: [1] 4.17 µM | [2] > 92.5 µM | [3] 19.5 µM | [4] 1.37 µM | [5] 11.7 µM | [6] > 100 µM | [7] 13.2 µM | [8] > 18.4 µM | [9] 6.65 µM | [10] 12.5 µM | [11] 2.94 µM | [12] 19.7 µM | [13] 57.3 µM | [15] 32.8 µM | [16] > 100 µM | [17] 22.5 µM | [18] 89.5 µM | [19] > 100 µM | [20] 1.5 µM
active: [14] 0.451 µM

CS(=O)(=O)O[C@H]1[C@H](O)c2ccccc2[C@@H]1N=[N+]=[N-]
inactive: [1] > 100 µM | [2] > 100 µM | [3] > 100 µM | [4] > 100 µM | [5] > 100 µM | [6] > 100 µM | [7] > 100 µM | [8] > 100 µM | [9] > 100 µM | [10] > 100 µM | [11] > 100 µM | [12] > 100 µM | [13] > 100 µM | [14] > 100 µM | [15] > 100 µM | [16] > 100 µM | [17] > 100 µM | [18] 21.4 µM | [19] > 100 µM | [20] > 100 µM

CC1=NN(C(=O)c2ccccc2O)C(=O)/C1=C/c1ccco1
active: [20] 0.581 µM
inactive: [1] 3.04 µM | [2] 7.55 µM | [3] 4.44 µM | [4] 2.67 µM | [5] 5.57 µM | [6] 7.03 µM | [7] 4.27 µM | [8] 5.02 µM | [9] 1.59 µM | [10] 2.23 µM | [11] 1.93 µM | [12] 11.9 µM | [13] 1.53 µM | [14] 2.64 µM | [15] 8.73 µM | [16] 1.64 µM | [17] 1.74 µM | [18] 3.02 µM | [19] 2.43 µM
